For this assay, the system named is NL4-3 strain of HIV-1. Briefly: HIV-1 replication inhibition: cyto-protection of MT4 cells infected with NL4-3 virus (CellTiter-Glo viability assay). It is filed as cell-based. The conditions noted are these: Human immunodeficiency virus 1, NL43, 120 h, concentration leading to 50% of cyto-protection, 5 days incubation. On the procedure:
The antiviral activity, particularly against HIV, of compounds according to the invention is evaluated by the protocol described below.
Preparation of Virus Stock of the NL4-3 Strain of HIV-1
The virus was prepared as described in Lopez et al (Lopez et al, Proc Natl Acad Sci USA., 2006, 103(40):14947-52, by transfecting 2×10^6 293 T cells (CRL-1573, ATCC) with following modifications: 6 μg of NL4-3 proviral DNA molecular clone were mixed with Fugene 6 transfection reagent from Roche, and used according to manufacturer's instructions. Forty eight hours later, transfected cell supernatants were harvested, filtered through 0.45-μm-pore-size filters, quantified for HIV-1 p24 antigen by using a Innotest HIV antigen mAb assay (Ingen) according to manufacturer's instructions, and used in infection experiments.
Preparation of Compounds:
Serial dilutions of compounds to be tested were prepared in complete RPMI medium from 10 mM DMSO stock solutions, and distributed in a volume of 20 µl in 96 well Falcon 353072 Microtest™ tissue culture plate, in order to get 0.5% DMSO final concentration in each well, after the addition of infected cells. Control wells contained also 0.5% DMSO final concentration but no compound.
MT4 cells (from the NIH AIDS Research and Reference Reagent Program) in RPMI complete medium were counted (10×10^6 cells per well in Falcon 353047 Multiwell™ 24 well) and infected for 2 hours at 37°, at a multiplicity of infection (moi) of 0.0001-0.00001. Cells were then centrifuged 3 min at 3000 rpm, and washed two times in 1 ml PBS to remove viruses that have not entered in cells. Infected cells were resuspended in complete RPMI at 1.25×10^6 cells/ml, and 80 µl of infected cells were distributed in each well containing compounds to be tested or control wells. The plates were then incubated at 37° for 5 days.
Assay Used to Measure the Inhibition of HIV Replication by the Compounds
(according to Gregg S. Jones et al., Antimicrobial Agents and Chemotherapy, 2009, 53 (3): 1194-1203).
After 5 days of incubation, […] of CellTiter-Glo reagent (Promega Biosciences, Inc., Madison Wis., USA) were added to each well. Cell lysis was carried out at room temperature during 10 min, 150 μl of lysates were transferred in Packard Optiplate 96 well, and luminescence was read on a Fluoroskan (Thermo Scientific).
(In general: ATP-based viability assays read luminescence as a measure of living cells.)

Consider `CCCc1cccc(-c2sc(C)c(C(OC(C)(C)C)C(=O)O)c2C2=CCC(C)(C)CC2)n1` (stereo not shown) [Example 51, 2-(tert-butoxy)-2-{2-methyl-4-[4,4-dimethylcyclohex-1-en-1-yl]-5-(6-(n-propyl)pyridin-2-yl)thiophen-3-yl}acetic acid], for which the EC50 (commonly the concentration giving half of the maximal effect) came to 270 nM.

Molecule `CCCc1ccc(-c2sc(C)c(C(OC(C)(C)C)C(=O)O)c2C2=CCC(C)(C)CC2)nc1` (stereo not shown) [Example 52, 2-(tert-butoxy)-2-{2-methyl-4-[4,4-dimethylcyclohex-1-en-1-yl]-5-(5-(n-propyl)pyridin-2-yl)thiophen-3-yl}acetic acid] displayed an EC50 of 930 nM. Under `Cc1sc(-c2ccncc2)c(C2=CCC(C)(CF)CC2)c1C(OC(C)(C)C)C(=O)O` (stereo not shown) [Example 53, [4-(4-fluoromethyl-4-methylcyclohex-1-enyl)-2-methyl-5-pyridin-4-yl-thiophen-3-yl]-tert-butoxy-acetic acid] stands 70 nM; under `Cc1sc(-c2cscn2)c(C2=CCC(C)(C)CC2)c1C(OC(C)(C)C)C(=O)O` (stereo not shown) [Example 54, 2-(tert-butoxy)-2-{2-methyl-4-[4,4-dimethylcyclohex-1-en-1-yl]-5-(thiazol-4-yl)thiophen-3-yl}acetic acid], 470 nM; under `Cc1sc(-c2ccccc2C(N)=O)c(C2=CCC(C)(C)CC2)c1C(OC(C)(C)C)C(=O)O` (stereo not shown) [Example 55, 2-(tert-butoxy)-2-{2-methyl-4-[4,4-dimethylcyclohex-1-en-1-yl]-5-(carboxamidephen-2-yl)thiophen-3-yl}acetic acid], 90 nM. With `CNC(=O)c1ccccc1-c1sc(C)c(C(OC(C)(C)C)C(=O)O)c1C1=CCC(C)(C)CC1` (stereo not shown) [Example 56, 2-(tert-butoxy)-2-{2-methyl-4-[4,4-dimethylcyclohex-1-en-1-yl]-5-(N-methylbenzamide-2-yl)thiophen-3-yl}acetic acid], the EC50 stood at 120 nM.

For the molecule `Cc1sc(C2=CCCCC2)c(C2=CCC(C)(C)CC2)c1C(OC(C)(C)C)C(=O)O` (stereo not shown) [Example 57, 2-(tert-butoxy)-2-[4-(4,4-dimethylcyclohex-1-en-1-yl)-5-(cyclohexen-1-yl)-2-methylthiophen-3-yl]acetic acid], the EC50 amounted to 1200 nM. To `Cc1sc(-c2ccsn2)c(C2=CCC(C)(C)CC2)c1C(OC(C)(C)C)C(=O)O` (stereo not shown) [Example 58, 2-(tert-butoxy)-2-{2-methyl-4-[4,4-dimethylcyclohex-1-en-1-yl]-5-(isothiazol-3-yl)thiophen-3-yl}acetic acid] belongs 110 nM. The molecule `Cc1sc(C2=CCCC2)c(C2=CCC(C)(C)CC2)c1C(OC(C)(C)C)C(=O)O` (stereo not shown) [Example 59, 2-(tert-butoxy)-2-[4-(4,4-dimethylcyclohex-1-en-1-yl)-5-(cyclopenten-1-yl)-2-methylthiophen-3-yl]acetic acid] yielded a half-maximal effective concentration (EC50) of 670 nM. The molecule `CC(C)(C)OC(C(=O)O)c1c(C(F)(F)F)sc(-c2ccccc2)c1-c1ccc2c(c1)CCCO2` (stereo not shown) [Example 60, 2-(tert-butoxy)-2-[4-(3,4-dihydro-2H-1-benzopyran-6-yl)-5-phenyl-2-(trifluoromethyl)thiophen-3-yl]acetic acid] had a 50% effective concentration (EC50) of 500 nM. The EC50 values of the last two molecules are within 1.5-fold of each other. Molecule `Cc1sc(-c2ccccc2)c(-c2ccc3c4c(ccnc24)CCO3)c1C(OC(C)(C)C)C(=O)O` (stereo not shown) [Example 61, 2-(tert-butoxy)-2-[2-methyl-4-(2,3-dihydropyrano[4,3,2-de]quinolin-7-yl)-5-phenyl-thiophen-3-yl]acetic acid] displayed a concentration giving a half-maximal response (EC50) of 210 nM. Molecule `Cc1sc(-c2nsc(Cl)c2C)c(C2=CCC(C)(C)CC2)c1C(OC(C)(C)C)C(=O)O` (stereo not shown) [Example 62, 2-(tert-butoxy)-2-{2-methyl-4-[4,4-dimethylcyclohex-1-en-1-yl]-5-(5-chloro-4-methyl-isothiazol-3-yl)thiophen-3-yl}acetic acid] yielded an EC50 of 820 nM. Compared with the last molecule, the EC50 is about 3.9-fold higher. `Cc1sc(-c2ccns2)c(C2=CCC(C)(C)CC2)c1C(OC(C)(C)C)C(=O)O` (stereo not shown) [Example 63, 2-(tert-butoxy)-2-{2-methyl-4-[4,4-dimethylcyclohex-1-en-1-yl]-5-(isothiazol-5-yl)thiophen-3-yl}acetic acid] returned an EC50 of 950 nM. The EC50 values of the last two molecules are within 1.5-fold of each other.

The molecule `CCOC(C(=O)O)c1c(C)sc(-c2ccncc2)c1C1=CCC(C)(C)CC1` (stereo not shown) [Example 64, 2-[4-(4,4-dimethylcyclohex-1-en-1-yl)-2-methyl-5-(pyridin-4-yl)thiophen-3-yl]-2-ethoxyacetic acid] returned an EC50 of 710 nM. With `CCCc1sc(C)c(C(OC(C)(C)C)C(=O)O)c1-c1ccc2c(c1)CCCO2` (stereo not shown) [Example 65], a half-maximal response (EC50) required 1400 nM. Compared with the last molecule, the EC50 is about 2-fold higher. In turn, `Cc1sc(C2CC2)c(C2=CCC(C)(C)CC2)c1C(OC(C)(C)C)C(=O)O` (stereo not shown) [Example 66, 2-(tert-butoxy)-2-{2-methyl-4-[4,4-dimethylcyclohex-1-en-1-yl]-5-(cyclopropyl)thiophen-3-yl}acetic acid] displayed a concentration for a half-maximal effect (EC50) of 1100 nM. Molecule `Cc1sc(-c2ccccc2)c(C2=CCC(C)(C)c3cccnc32)c1C(OC(C)(C)C)C(=O)O` (stereo not shown) [Example 67, 2-(tert-butoxy)-2-[4-(5,5-dimethyl-5,6-dihydroquinolin-8-yl)-2-methyl-5-phenylthiophen-3-yl]acetic acid] came in with an EC50 of 2300 nM. As to `Cc1sc(N2CCCC2=O)c(C2=CCC(C)(C)CC2)c1C(OC(C)(C)C)C(=O)O` (stereo not shown) [Example 68, 2-(tert-butoxy)-2-{2-methyl-4-[4,4-dimethylcyclohex-1-en-1-yl]-5-(N-pyrrolidinone)thiophen-3-yl}acetic acid], a half-maximal effect (EC50) was put at 1900 nM. On to `CCCc1ccnc(-c2sc(C)c(C(OC(C)(C)C)C(=O)O)c2C2=CCC(C)(C)CC2)c1` (stereo not shown) [Example 71, 2-(tert-butoxy)-2-{2-methyl-4-[4,4-dimethylcyclohex-1-en-1-yl]-5-(4-(n-propyl)pyridin-2-yl)thiophen-3-yl}acetic acid], for which the EC50 was 1100 nM. Molecule `Cc1ccnc(-c2sc(C)c(C(OC(C)(C)C)C(=O)O)c2C2=CCC(C)(C)CC2)c1` (stereo not shown) [Example 72, 2-(tert-butoxy)-2-{2-methyl-4-[4,4-dimethylcyclohex-1-en-1-yl]-5-(4-methylpyridin-2-yl)thiophen-3-yl}acetic acid] had an EC50 of 2300 nM. Compared with the last molecule, the EC50 is about 2.1-fold higher. Regarding `Cc1cccc(-c2sc(C)c(C(OC(C)(C)C)C(=O)O)c2C2=CCC(C)(C)CC2)n1` (stereo not shown) [Example 73, 2-(tert-butoxy)-2-{2-methyl-4-[4,4-dimethylcyclohex-1-en-1-yl]-5-(6-methylpyridin-2-yl)thiophen-3-yl}acetic acid], the EC50 came to 6900 nM. Compared with the last molecule, the EC50 is about 3-fold higher. As for `Cc1sc(-c2ccncc2)c(-c2ccc3c4c(ccnc24)CCO3)c1C(OC(C)(C)C)C(=O)O` (stereo not shown) [Example 74, 2-(tert-butoxy)-2-(2-methyl-4-(2,3-dihydropyrano[4,3,2-de]quinolin-7-yl)-5-(pyridin-4-yl)thiophen-3-yl)acetic acid], the 50% effective concentration (EC50) turned out to be 6800 nM. Consider `Cc1sc(-c2cc(F)c3c(c2)CCCO3)c(-c2cc(F)c3c(c2)CCCO3)c1C(OC(C)(C)C)C(=O)O` (stereo not shown) [Example 75, 2-[4,5-bis(8-fluoro-3,4-dihydro-2H-1-benzopyran-6-yl)-2-methylthiophen-3-yl]-2-(tert-butoxy)acetic acid], for which the EC50 worked out at 2400 nM. For the molecule `Cc1sc(-c2ccc(C(=O)N(C)C)cc2)c(C2=CCC(C)(C)CC2)c1C(OC(C)(C)C)C(=O)O` (stereo not shown) [Example 76], the concentration for a half-maximal effect (EC50) turned out to be 3300 nM. In turn, `Cc1sc(-c2ccc(S(=O)(=O)N(C)C)cc2)c(C2=CCC(C)(C)CC2)c1C(OC(C)(C)C)C(=O)O` (stereo not shown) [Example 77, 2-(tert-butoxy)-2-[4-(4,4-dimethylcyclohex-1-en-1-yl)-5-[4-(dimethylsulfamoyl)phenyl]-2-methylthiophen-3-yl]acetic acid] gave an EC50 of 4400 nM. Molecule `Cc1sc(C2=CCOCC2)c(-c2ccc3c(c2)CCCO3)c1C(OC(C)(C)C)C(=O)O` (stereo not shown) [Example 78, 2-(tert-butoxy)-2-[4-(3,4-dihydro-2H-1-benzopyran-6-yl)-5-(3,6-dihydro-2H-pyran-4-yl)-2-methylthiophen-3-yl]acetic acid] showed an EC50 of 4300 nM.

For the molecule `COc1ccc(-c2sc(C)c(C(OC(C)(C)C)C(=O)O)c2-c2ccc3c(c2)CCCO3)cn1` (stereo not shown) [Example 79, 2-(tert-butoxy)-2-[4-(3,4-dihydro-2H-1-benzopyran-6-yl)-5-(6-methoxypyridin-3-yl)-2-methylthiophen-3-yl]acetic acid], the response was half-maximal at 1500 nM (EC50). Under `Cc1sc(-c2cnn(Cc3ccccc3)c2)c(-c2ccc3c(c2)CCCO3)c1C(OC(C)(C)C)C(=O)O` (stereo not shown) [Example 80, 2-[5-(1-benzyl-1H-pyrazol-4-yl)-4-(3,4-dihydro-2H-1-benzopyran-6-yl)-2-methylthiophen-3-yl]-2-(tert-butoxy)acetic acid] stands 6200 nM.

(Values after patent US9562033B2, “Inhibitors of viral replication, their process of preparation and their therapeutical uses” (LABORATOIRE BIODIM, priority 2012, dated 2017).)
